Measured values: ChEMBL document CHEMBL4602661, “Immunosuppressive Nor-isopimarane Diterpenes from Cultures of the Fungicolous Fungus Xylaria longipes HFG1018” (J Nat Prod, 2020)

Columns and labels:
[1] = Cytotoxicity against BALB/C mouse B lymphocytes assessed as cell viability at 40 uM after 8 to 10 hrs by CCK-8 assay relative to control; type: cell-based; conditions: read-out: Activity
[2] = Cytotoxicity against BALB/C mouse T lymphocytes assessed as cell viability at 40 uM after 8 to 10 hrs by CCK-8 assay relative to control; type: cell-based; conditions: read-out: Activity
[3] = tested on: T-cell; assay: Immunosuppressive activity against BALB/C mouse T lymphocytes assessed as reduction in concanavalin A-induced cell proliferation by measuring [3H]-thymidine uptake incubated for 8 hrs by Beta scintillation counting method; type: functional, cell-based
[4] = tested on: B-cell line; assay: Immunosuppressive activity against BALB/C mouse B lymphocytes assessed as reduction in LPS-induced cell proliferation by measuring [3H]-thymidine uptake incubated for 8 hrs by Beta scintillation counting method; type: functional, cell-based

Structure (SMILES) | viability at 40 µM [1] [%] | viability at 40 µM [2] [%] | IC50 [3] [µM] | IC50 [4] [µM]
C[C@]12CCC[C@@](C)(O)[C@@H]1CC=C1[C@H]3OC[C@@H](O)[C@@]3(C)CC[C@@H]12 | > 85 | > 85 | 4 | 46
C[C@@]12CCO[C@@H]1C1=CC[C@H]3[C@H](CO)CCC[C@]3(C)[C@H]1CC2 | > 85 | > 85 | 6.6 | 38.2
C[C@@]12CCO[C@@H]1C1=CC[C@H]3[C@](C)(O)[C@H](O)CC[C@]3(C)[C@H]1CC2 | > 85 | > 85 |  | 
C[C@@H]1C[C@H]2[C@@H]3CCC4=CC(=O)C=C[C@]4(C)[C@@]3(F)[C@@H](O)C[C@]2(C)[C@@]1(O)C(=O)CO [DEXAMETHASONE] |  |  | 1.6 | 0.8
C[C@@]12CCO[C@@H]1C1=CC[C@H]3[C@@](O)(CO)CCC[C@]3(C)[C@H]1CC2 | > 85 | > 85 | 11.1 | 35.1
C[C@@]12CCO[C@@H]1C1=CC[C@H]3[C@](C)(O)[C@@H](O)CC[C@]3(C)[C@H]1CC2 | > 85 | > 85 |  | 
C[C@]1(CCO)CC[C@H]2C(=CC[C@@H]3[C@]2(C)CCC[C@@]3(C)O)C1 | > 85 | > 85 | 1 | 16.1
C[C@]1(CCO)CC[C@H]2C(=CC[C@@H]3[C@]2(C)CCC[C@]3(C)O)C1 | > 85 | > 85 |  | 
C[C@@]1(CCO)CC2=CC[C@@H]3[C@](C)(CCC[C@@]3(C)O)[C@H]2[C@H](O)C1 | > 85 | > 85 |  | 
C[C@]1(CCO)CCC2=C(C1)C(=O)C[C@H]1[C@](C)(O)CCC[C@]21C | > 85 | > 85 |  | 
CC1(O)CCC[C@]2(C)C3=C(C[C@@]4(C)CCO[C@@H]3C4)[C@@H](O)C[C@@H]12 (stereo partly drawn) | > 85 | > 85 |  | 
C[C@@]12CCO[C@@H]1C1=CC[C@@H]3[C@](C)(CCC[C@@]3(C)O)[C@H]1CC2 | > 85 | > 85 | 27.2 | 40
C[C@@]12CCO[C@@H]1C1=CC[C@H]3[C@](C)(CO)CCC[C@]3(C)[C@H]1CC2 | > 85 | > 85 |  | 
C[C@]12CC[C@H]3C(=CC[C@@H]4[C@]3(C)CCC[C@@]4(C)O)[C@H]1OC[C@@H]2O | > 85 | > 85 |  | 
C[C@@]12CCO[C@@H]1C1=CC[C@H]3[C@H](O)CCC[C@]3(C)[C@H]1CC2 | > 85 | > 85 |  | 
C[C@@]12CCO[C@@H]1C1=CC[C@@H]3[C@](C)(CCC[C@]3(C)O)[C@H]1CC2 | > 85 | > 85 | 21.1 | 51.8
C[C@]1(CCO)CC[C@H]2C(=CC[C@H]3[C@H](O)CCC[C@]23C)C1 | > 85 | > 85 |  | 
C=C1CC[C@H]2[C@@](C)(CO)CCC[C@]2(C)[C@H]1CC/C(C)=C/CO | > 85 | > 85 | 15.6 | 47.2
C[C@]1(CCO)CC=C2C(=CC[C@H]3[C@](C)(O)CCC[C@]23C)C1 | > 85 | > 85 |  | 
C[C@@]12CCO[C@@H]1C1=CC[C@H]3[C@@](C)(O)[C@@H](O)CC[C@]3(C)[C@H]1CC2 | > 85 | > 85 |  | 
C[C@@]12CCO[C@@H]1C1=C[C@@H](O)[C@@H]3[C@](C)(CCC[C@]3(C)O)[C@H]1CC2 | > 85 | > 85 | 14.9 | 49.4
